System: choroidal neovascular leakage
Test: Laser-induced CNV leakage by fluorescein angiography (model of AMD)
Assay type: in vivo, mice
Details: 50,000KIU/day, i.p.
Excerpt: Laser-induced CNV is a VEGF-dependent model for exudative changes that occur in AMD. In this model, disruption of an animal's Bruch's membrane by laser results in formation of CNV lesions. In these lesions, neovascular capillaries originate within the choroid and extend through the disrupted Bruch's membrane into the outer nuclear layer of the retina. The formation of these leaky capillaries is mainly attributed to changes in the level of angiogenic growth factors such as VEGF.
To perform the procedure, the pupils were dilated with 1-2 drops of 1% tropicamide. Subsequently, 4-6 photocoagulation lesions were delivered to each eye, using a Coherent argon laser (532 nm wavelength, 50 μm spot size, 0.1 s duration, 120-160 mW; model 920; Coherent, Palo Alto, Calif.) between the retinal vessels in a peripapillary distribution in each fundus, using a slit lamp delivery system and a cover glass as a contact lens. The genesis of a bubble at the time of laser treatment confirmed the rupture of the Bruch's membrane. […] Images were captured on a computer (using the IMAGEnet for Windows software, Topcon, Paramus, N.J.). Two masked evaluators performed the grading of the retinal images. A choroidal neovascular membrane is considered to be present if there was early hyperfluorescence followed by later leakage at the site where the laser injury is induced. […]

## aprotinin
Day 7 post injury
  CNV leakage on fluorescein angiography compared to vehicle treated controls: substantially smaller
Day 14 post injury
  CNV lesion size on fluorescein angiography: further reduced lesion size

Source: patent US20070248646A1, “Use of azurocidin inhibitors in prevention and treatment of ocular vascular leakage” (priority 2006, published 2007)
